The values that follow come from the NIST ThermoML archive (doi:10.1016/j.fluid.2014.11.020).

This series in a line: activity coefficient (dimensionless); of the first substance listed, at infinite dilution; xn = mol fraction of the nth substance listed. As to conditions: Liquid, Chromatography, x1 = 0.

Molecules are shown by their SMILES. ± gives the expanded uncertainty stated by the source.

For `Cc1cccc(C)c1` [1,3-dimethylbenzene] + Cn1cc[n+](COCCCOC[n+]2ccn(C)c2)c1.N#C[N-]C#N.N#C[N-]C#N, the activity coefficient runs as follows: (323.15 K) 10.9 ± 0.75; (333.15 K) 10.7 ± 0.73; (343.15 K) 10.5 ± 0.72.
The corresponding values for `C1COCCO1` [1,4-dioxane] + CN(C)c1cc[n+](COCCCOC[n+]2ccc(N(C)C)cc2)cc1.O=S(=O)([N-]S(=O)(=O)C(F)(F)F)C(F)(F)F.O=S(=O)([N-]S(=O)(=O)C(F)(F)F)C(F)(F)F are 0.44 ± 0.04, 0.45 ± 0.04 and 0.45 ± 0.04.
Turning to `CCO` [ethanol] + Cn1cc[n+](COCCCOC[n+]2ccn(C)c2)c1.N#C[N-]C#N.N#C[N-]C#N, the activity coefficient is, setting by setting: (323.15 K) 0.78 ± 0.05; (333.15 K) 0.76 ± 0.05; (343.15 K) 0.72 ± 0.05.
With `CC(C)O` [propan-2-ol] + CCCOC[n+]1ccn(C)c1.O=S(=O)([N-]S(=O)(=O)C(F)(F)F)C(F)(F)F, the activity coefficient worked out at 1.9 ± 0.13 (323.15 K), 1.51 ± 0.1 (333.15 K) and 1.39 ± 0.09 (343.15 K).
As to `CCN(CC)CC` [triethylamine] + CCCOC[n+]1ccn(Cc2ccccc2)c1.N#C[N-]C#N, the activity coefficient (323.15 K) amounted to 9.22 ± 0.63.
With `Cc1ccccc1C` [1,2-dimethylbenzene] + Cn1cc[n+](COCCCOC[n+]2ccn(C)c2)c1.N#C[N-]C#N.N#C[N-]C#N, the activity coefficient runs as follows: (323.15 K) 8.42 ± 0.57; (333.15 K) 8.26 ± 0.56; (343.15 K) 8.25 ± 0.56.
The like results for `CCCO` [propan-1-ol] + CCCCCCCCn1cc[n+](COCCC)c1C.O=S(=O)([N-]S(=O)(=O)C(F)(F)F)C(F)(F)F were, in that order, 1.16 ± 0.07, 1.06 ± 0.07 and 0.98 ± 0.06.
The like results for `CCCC(C)=O` [pentan-2-one] + CCCOC[n+]1ccn(C)c1.F[B-](F)(F)F were, in that order, 3.32 ± 0.23, 3.33 ± 0.23 and 3.31 ± 0.23.
The like results for `Cc1ccccc1C` [1,2-dimethylbenzene] + CCCCCCCCn1cc[n+](COCCC)c1C.N#C[N-]C#N were, in that order, 1.33 ± 0.09, 1.33 ± 0.09 and 1.33 ± 0.09.
As for `C1COCCO1` [1,4-dioxane] + CCCCCCCCn1cc[n+](COCCC)c1C.N#C[N-]C#N, the activity coefficient is, setting by setting: (323.15 K) 0.77 ± 0.05; (333.15 K) 0.78 ± 0.05; (343.15 K) 0.78 ± 0.05.
For `CCCCCCCCCCCC` [dodecane] + Cn1cc[n+](COCCCOC[n+]2ccn(C)c2)c1.N#C[N-]C#N.N#C[N-]C#N, the activity coefficient is, setting by setting: (323.15 K) 1150 ± 79; (333.15 K) 962 ± 66; (343.15 K) 932 ± 64.
The like results for `C[N+](=O)[O-]` [nitromethane] + N#C[N-]C#N.N#C[N-]C#N.c1ccc(Cn2cc[n+](COCCCOC[n+]3ccn(Cc4ccccc4)c3)c2)cc1 were, in that order, 0.86 ± 0.06, 0.85 ± 0.05 and 0.87 ± 0.06.
The like results for `CCCCCCCCCCCC` [dodecane] + CCCOC[n+]1ccn(Cc2ccccc2)c1.F[B-](F)(F)F were, in that order, 483 ± 33, 421 ± 29 and 370 ± 25.
The like results for `CCCCO` [butan-1-ol] + CCCCCCCCn1cc[n+](COCCCOC[n+]2ccn(CCCCCCCC)c2C)c1C.N#C[N-]C#N.N#C[N-]C#N were, in that order, 7.49 ± 0.51, 5.96 ± 0.41 and 4.81 ± 0.33.
Take `CC1CCCCC1` [methylcyclohexane] + CCCCCCCCn1cc[n+](COCCCOC[n+]2ccn(CCCCCCCC)c2C)c1C.O=S(=O)([N-]S(=O)(=O)C(F)(F)F)C(F)(F)F.O=S(=O)([N-]S(=O)(=O)C(F)(F)F)C(F)(F)F: the activity coefficient came to 2.94 ± 0.2 (323.15 K), 2.71 ± 0.18 (333.15 K) and 2.73 ± 0.19 (343.15 K).
The corresponding values for `ClC(Cl)(Cl)Cl` [tetrachloromethane] + Cn1cc[n+](COCCCOC[n+]2ccn(C)c2)c1.O=S(=O)([N-]S(=O)(=O)C(F)(F)F)C(F)(F)F.O=S(=O)([N-]S(=O)(=O)C(F)(F)F)C(F)(F)F are 3.21 ± 0.22, 3.03 ± 0.21 and 2.29 ± 0.16.
The like results for `CC(C)O` [propan-2-ol] + CCCCCCCCn1cc[n+](COCCCOC[n+]2ccn(CCCCCCCC)c2C)c1C.N#C[N-]C#N.N#C[N-]C#N were, in that order, 0.4 ± 0.03, 0.38 ± 0.03 and 0.38 ± 0.03.
The corresponding values for `Cc1cccc(C)c1` [1,3-dimethylbenzene] + CCCOC[n+]1ccc(N(C)C)cc1.O=S(=O)([N-]S(=O)(=O)C(F)(F)F)C(F)(F)F are 1.4 ± 0.09, 1.47 ± 0.1 and 1.48 ± 0.1.
On to `CCC[N+](=O)[O-]` [1-nitropropane] + CCCCCCCCn1cc[n+](COCCC)c1C.N#C[N-]C#N, for which the activity coefficient (323.15 K) is 0.76 ± 0.05, the activity coefficient (333.15 K) worked out at 0.75 ± 0.05 and the activity coefficient (343.15 K) is 0.75 ± 0.05.
With `CO` [methanol] + CCCOC[n+]1ccc(N(C)C)cc1.O=S(=O)([N-]S(=O)(=O)C(F)(F)F)C(F)(F)F, the activity coefficient is 1.28 ± 0.08 (323.15 K), 1.23 ± 0.08 (333.15 K) and 1.16 ± 0.07 (343.15 K).
The like results for `C1CCCCC1` [cyclohexane] + CCCOC[n+]1ccn(Cc2ccccc2)c1.O=S(=O)([N-]S(=O)(=O)C(F)(F)F)C(F)(F)F were, in that order, 4.98 ± 0.34, 4.29 ± 0.29 and 3.99 ± 0.27.
The like results for `CC#N` [acetonitrile] + CCCOC[n+]1ccn(Cc2ccccc2)c1.N#C[N-]C#N were, in that order, 0.72 ± 0.05, 0.76 ± 0.05 and 0.77 ± 0.05.
For the compound `C1CCCCCC1` [cycloheptane] + CN(C)c1cc[n+](COCCCOC[n+]2ccc(N(C)C)cc2)cc1.O=S(=O)([N-]S(=O)(=O)C(F)(F)F)C(F)(F)F.O=S(=O)([N-]S(=O)(=O)C(F)(F)F)C(F)(F)F, the activity coefficient by setting is: (323.15 K) 27 ± 1.9; (333.15 K) 34.9 ± 2.4; (343.15 K) 42.8 ± 2.9.
The corresponding values for `CCCCCCC` [heptane] + CCCOC[n+]1ccc(N(C)C)cc1.O=S(=O)([N-]S(=O)(=O)C(F)(F)F)C(F)(F)F are 15.8 ± 1.1, 14.8 ± 1 and 13.9 ± 0.95.
Regarding `CC(C)OC(C)C` [diisopropyl ether] + CCCOC[n+]1ccn(Cc2ccccc2)c1.O=S(=O)([N-]S(=O)(=O)C(F)(F)F)C(F)(F)F, the activity coefficient was 3 ± 0.2 (323.15 K), 2.87 ± 0.2 (333.15 K) and 2.74 ± 0.19 (343.15 K).
The corresponding values for `c1ccsc1` [thiophene] + CCCOC[n+]1ccn(C)c1.F[B-](F)(F)F are 2.26 ± 0.15, 2.27 ± 0.15 and 2.27 ± 0.15.
The corresponding values for `C#CCCCC` [1-hexyne] + CCCCCCCCn1cc[n+](COCCCOC[n+]2ccn(CCCCCCCC)c2C)c1C.N#C[N-]C#N.N#C[N-]C#N are 1.72 ± 0.12, 1.68 ± 0.11 and 1.63 ± 0.11.
